Results on 4 sequences are retold here after patent US20110189213A1, “MYBL2 EPITOPE PEPTIDES AND VACCINES CONTAINING THE SAME” (Oncotherapy Science, Inc., priority 2008, published 2011).

Assay type in all cases: cell-based, human
Assay [1] concerns CD8+ T cells stimulated with peptide-pulsed DCs (HLA-A*2402 positive). In words: In vitro CTL induction and establishment of CTL lines. As to conditions: cells of positive wells expanded. An excerpt:
Monocyte-derived dendritic cells (DCs) were used as antigen-presenting cells (APCs) to induce cytotoxic T lymphocyte (CTL) responses against peptides presented on human leukocyte antigen (HLA). DCs were generated in vitro as described elsewhere (Nakahara S et al., Cancer Res 2003 Jul. 15, 63(14): 4112-8). Specifically, peripheral blood mononuclear cells (PBMCs) isolated from a normal volunteer (HLA-A*2402 positive) by Ficoll-Plaque (Pharmacia) solution were separated by adherence to a plastic tissue culture dish (Becton Dickinson) so as to enrich them as the monocyte fraction. The monocyte-enriched population was cultured in the presence of 1000 U/ml of granulocyte-macrophage colony-stimulating factor (GM-CSF) (R&D System) and 1000 U/ml of interleukin (IL)-4 (R&D System) in AIM-V Medium (Invitrogen) containing 2% heat-inactivated autologous serum (AS). After 7 days of culture, the cytokine-induced DCs were pulsed with 20 mcg/ml of each of the synthesized peptides in the presence of 3 mcg/ml of beta2-microglobulin for 3 hr at 37 degrees C. in AIM-V Medium. The generated cells appeared to express DC-associated molecules, such as CD80, CD83, CD86 and HLA class II, on their cell surfaces (data not shown). These peptide-pulsed DCs were then inactivated by Mitomycin C (MMC) (30 mcg/ml for 30 min) and mixed at a 1:20 ratio with autologous CD8+ T cells, obtained by positive selection with CD8 Positive Isolation Kit (Dynal). These cultures were set up in 48-well plates (Corning); each well contained 1.5×10^4 peptide-pulsed DCs, 3×10^5 CD8+ T cells and 10 ng/ml of IL-7 (R&D System) in 0.5 ml of AIM-V/2% AS medium. Three days later, these cultures were supplemented with IL-2 (CHIRON) to a final concentration of 20 IU/ml. On day 7 and 14, the T cells were further stimulated with the autologous peptide-pulsed DCs. The DCs were prepared each time by the same way described above. […]

Assay [2] concerns peptide-pulsed A24LCL cells. In words: IFN-gamma ELISA assay on established CTL lines. The conditions noted are these: target cells pulsed with corresponding peptide vs target cells without peptide pulse. As to the method: CTLs were expanded in culture using the method similar to the one described by Riddell et al. (Walter E A et al., N Engl J Med 1995 Oct. 19, 333(16): 1038-44; Riddell S R et al., Nat Med 1996 February, 2(2): 216-23). A total of 5×10^4 CTLs were suspended in 25 ml of AIM-V/5% AS medium with 2 kinds of human B-lymphoblastoid cell lines, inactivated by MMC, in the presence of 40 ng/ml of anti-CD3 monoclonal antibody (Pharmingen). One day after initiating the cultures, 120 IU/ml of IL-2 were added to the cultures. The cultures were fed with fresh AIM-V/5% AS medium containing 30 IU/ml of IL-2 on days 5, 8 and 11 (Tanaka H et al., Br J Cancer 2001 Jan. 5, 84(1): 94-9; Umano Y et al., Br J Cancer 2001 Apr. 20, 84(8): 1052-7; Uchida N et al., Clin Cancer Res 2004 Dec. 15, 10(24): 8577-86; Suda T et al., Cancer Sci 2006 May, 97(5): 411-9; Watanabe T et al., Cancer Sci 2005 August, 96(8): 498-506).
(§1) To examine specific CTL activity, interferon (IFN)-gamma enzyme-linked immunospot (ELISPOT) assay and IFN-gamma enzyme-linked immunosorbent assay (ELISA) were performed. Specifically, peptide-pulsed A24LCL (1×10^4/well) was prepared as stimulator cells. Cultured cells in 48 wells were used as responder cells. IFN-gamma ELISPOT assay and IFN-gamma ELISA assay were performed under manufacture procedure.
Background: An ELISA detects its analyte on a solid surface through an enzyme-linked reagent.

Assay [3] deals with peptide-pulsed A24LCL cells. Put plainly: IFN-gamma ELISPOT assay on CTLs induced with MYBL2 peptides. The conditions noted are these: against peptide-pulsed target cells vs control without peptide, day 21 after 3rd stimulation.
Excerpt: Monocyte-derived dendritic cells (DCs) were used as antigen-presenting cells (APCs) to induce cytotoxic T lymphocyte (CTL) responses against peptides presented on human leukocyte antigen (HLA). DCs were generated in vitro as described elsewhere (Nakahara S et al., Cancer Res 2003 Jul. 15, 63(14): 4112-8). Specifically, peripheral blood mononuclear cells (PBMCs) isolated from a normal volunteer (HLA-A*2402 positive) by Ficoll-Plaque (Pharmacia) solution were separated by adherence to a plastic tissue culture dish (Becton Dickinson) so as to enrich them as the monocyte fraction. The monocyte-enriched population was cultured in the presence of 1000 U/ml of granulocyte-macrophage colony-stimulating factor (GM-CSF) (R&D System) and 1000 U/ml of interleukin (IL)-4 (R&D System) in AIM-V Medium (Invitrogen) containing 2% heat-inactivated autologous serum (AS). After 7 days of culture, the cytokine-induced DCs were pulsed with 20 mcg/ml of each of the synthesized peptides in the presence of 3 mcg/ml of beta2-microglobulin for 3 hr at 37 degrees C. in AIM-V Medium. The generated cells appeared to express DC-associated molecules, such as CD80, CD83, CD86 and HLA class II, on their cell surfaces (data not shown). These peptide-pulsed DCs were then inactivated by Mitomycin C (MMC) (30 mcg/ml for 30 min) and mixed at a 1:20 ratio with autologous CD8+ T cells, obtained by positive selection with CD8 Positive Isolation Kit (Dynal). These cultures were set up in 48-well plates (Corning); each well contained 1.5×10^4 peptide-pulsed DCs, 3×10^5 CD8+ T cells and 10 ng/ml of IL-7 (R&D System) in 0.5 ml of AIM-V/2% AS medium. Three days later, these cultures were supplemented with IL-2 (CHIRON) to a final concentration of 20 IU/ml. On day 7 and 14, the T cells were further stimulated with the autologous peptide-pulsed DCs. The DCs were prepared each time by the same way described above. CTL was tested against peptide-pulsed A24LCL cells after the 3rd round of peptide stimulation on day 21 (Tanaka H et al., Br J Cancer 2001 Jan. 5, 84(1): 94-9; Umano Y et al., Br J Cancer 2001 Apr. 20, 84(8): 1052-7; Uchida N et al., Clin Cancer Res 2004 Dec. 15, 10(24): 8577-86; Suda T et al., Cancer Sci 2006 May, 97(5): 411-9; Watanabe T et al., Cancer Sci 2005 August, 96(8): 498-506).
as §1

Entries after “also recorded” stand apart in the source; their conditions may differ.

As for “KYGTKQWTL [SEQ ID NO: 1, 9-mer peptide derived from MYBL2, start position 100]”, in assay [1], the “Establishment of CTL lines” value was “expanded and established CTL lines”. The “IFN-gamma production of established CTL lines (ELISA)” value (from here on “IFN-gamma production … (ELISA)”) in assay [2] is on record as “potent IFN-gamma production against the target cells pulsed with corresponding peptide”; in assay [2] (listed as MYBL2-A24-9-100) it was “potent IFN-gamma production as compared with the control”. Besides, the “IFN-gamma production of peptide-stimulated CTLs (ELISPOT)” value (“IFN-gamma production … (ELISPOT)” for short) in assay [3] (listed as MYBL2-A24-9-100) is “potent IFN-gamma production as compared to the control wells; also recorded: potent IFN-gamma production as compared with the control”.
Consider “EYRLDGHTI [SEQ ID NO: 2, 9-mer peptide derived from MYBL2, start position 370]”, for which the “Establishment of CTL lines” value in assay [1] was “expanded and established CTL lines”. The “IFN-gamma production … (ELISA)” value in assay [2] was “potent IFN-gamma production against the target cells pulsed with corresponding peptide”; in assay [2] (listed as MYBL2-A24-9-370) it was “potent IFN-gamma production as compared with the control”. Further, the “IFN-gamma production … (ELISPOT)” value in assay [3] (listed as MYBL2-A24-9-370) is on record as “potent IFN-gamma production as compared to the control wells; also recorded: potent IFN-gamma production as compared with the control”.
As for “QFGQQDWKFL [SEQ ID NO: 12, 10-mer peptide derived from MYBL2, start position 48]”, in assay [2] (listed as MYBL2-A24-10-48), the “IFN-gamma production … (ELISA)” value is “typical negative data of CTL response; also recorded: no specific IFN-gamma production against peptide-pulsed target cells was observed”. Also, the “IFN-gamma production … (ELISPOT)” value in assay [3] (listed as MYBL2-A24-10-48) was “typical negative data of CTL response; also recorded: no specific IFN-gamma production was detected”.
As to “KPPVYLLLEL [SEQ ID NO: 13, 10-mer peptide derived from MYBL2, start position 197]”, the “Establishment of CTL lines” value in assay [1] is “expanded and established CTL lines”. In addition, the results for the “IFN-gamma production … (ELISA)” value in assay [2] and in assay [2] (listed as MYBL2-A24-10-197) were “potent IFN-gamma production against the target cells pulsed with corresponding peptide” and “potent IFN-gamma production as compared with the control”, respectively. For the same sequence, the “IFN-gamma production … (ELISPOT)” value in assay [3] (listed as MYBL2-A24-10-197) is on record as “potent IFN-gamma production as compared to the control wells; also recorded: potent IFN-gamma production as compared with the control”.
